Values after ≈ are worked out from the molar mass of the structure shown. Read-outs that look alike come from different tables or passages of the source.
Key:
myosin II = conditions: no reference given; cited from earlier work
[1] = target: T1, rabbit skeletal muscle myosin S1 (SkS1) (Oryctolagus cuniculus, UniProt Q28641); assay: Steady state actin activated ATPase, SkS1; format: biochemical; conditions: 45 μM actin, 25 °C
T1 construct: SkS1 (rabbit skeletal S1 fragment); from tissue; host or cells: rabbit skeletal muscle
T1 sequence (Q28641 1-844 limits assumed): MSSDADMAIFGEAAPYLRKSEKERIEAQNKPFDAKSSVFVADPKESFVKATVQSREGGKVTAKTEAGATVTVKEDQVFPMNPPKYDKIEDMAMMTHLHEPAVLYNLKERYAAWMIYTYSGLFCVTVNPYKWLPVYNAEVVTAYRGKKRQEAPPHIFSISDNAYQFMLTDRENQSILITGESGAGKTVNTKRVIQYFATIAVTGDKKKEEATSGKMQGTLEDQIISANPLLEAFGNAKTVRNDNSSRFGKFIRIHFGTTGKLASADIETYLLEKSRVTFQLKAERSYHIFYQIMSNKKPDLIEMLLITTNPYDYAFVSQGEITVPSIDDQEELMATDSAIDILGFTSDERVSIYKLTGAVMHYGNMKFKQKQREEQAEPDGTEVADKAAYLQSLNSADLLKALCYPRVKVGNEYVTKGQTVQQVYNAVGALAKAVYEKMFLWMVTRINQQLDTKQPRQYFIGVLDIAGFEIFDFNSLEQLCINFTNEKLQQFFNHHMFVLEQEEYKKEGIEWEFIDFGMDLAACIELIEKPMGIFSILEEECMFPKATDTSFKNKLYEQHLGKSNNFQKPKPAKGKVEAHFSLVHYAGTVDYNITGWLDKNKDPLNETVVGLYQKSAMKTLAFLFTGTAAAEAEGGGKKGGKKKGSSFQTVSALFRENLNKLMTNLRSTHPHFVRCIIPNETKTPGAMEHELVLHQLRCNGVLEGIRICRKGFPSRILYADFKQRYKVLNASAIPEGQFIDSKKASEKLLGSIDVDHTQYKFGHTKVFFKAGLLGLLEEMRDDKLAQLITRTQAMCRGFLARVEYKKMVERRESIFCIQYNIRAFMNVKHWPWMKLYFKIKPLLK
T1 sequence (P02602 whole entry partner, the tested form may be a part): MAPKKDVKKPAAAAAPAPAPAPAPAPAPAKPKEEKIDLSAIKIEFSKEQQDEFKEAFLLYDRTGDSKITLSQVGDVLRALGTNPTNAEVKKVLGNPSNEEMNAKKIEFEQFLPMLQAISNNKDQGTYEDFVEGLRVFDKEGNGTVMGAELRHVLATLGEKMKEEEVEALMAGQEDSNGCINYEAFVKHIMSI
Method: […]. Myosin and actin together with the indicated concentration of the inhibitor were pre-incubated for 5 minutes at room temperature and the measurements were initiated with 1 mM ATP. Data were corrected for background ATPase activity of actin. G-actin was prepared accordingly from rabbit skeletal muscle[24] and polymerized by 2 mM MgCl2 for 1 hour at room temperature. Measurements were performed in low salt buffer containing 5 mM HEPES, 2 mM MgCl2, 0.1 mM EGTA and 2 mM DTT at pH 7.2 or assay buffer containing 20 mM HEPES, 40 mM NaCl, 4 mM MgCl2 at pH 7.3 for basal ATPase activity measurements with DdMD.

[2] = system: cldnb:gfp zebrafish embryos; assay: Posterior lateral line primordium (pLLp) migration; format: in vivo, zebrafish (Danio rerio); conditions: 20 μM, 24 hours of incubation
Method: However, the highly fluorescent, dense precipitates of blebbistatin disturb imaging in the GFP channel of the microscope. […] In this experiment, cldnb:gfp zebrafish embryos were imaged by an epifluorescent microscope after 24 hours of incubation in the presence of 20 μM concentrations of the indicated inhibitors (Fig. 4d) in order to detect the effect of myosin II inhibition on the proliferating leading edge of the posterior lateral line primordium (pLLp)[21] and visualize the effect of the precipitates by epifluorescent microcopy. […] In the case of para-aminoblebbistatin treatment, the GFP signal of the migrating pLLp can be visualized clearly, while the precipitates of the two other inhibitors highly disturbed the imaging.

zebrafish embryo = system: zebrafish embryo; design: method as in PMID 24954740; conditions: after 24 hours of incubation; cited from earlier work
[3] = Solubility assays in assay buffer (supernatant concentration after centrifugation); conditions: room temperature
Method: 50 μM of the inhibitors were dissolved in assay buffer (see Experimental Procedures) containing 0.1 or 1 vol/vol% DMSO, centrifuged at the indicated times and the concentration of the supernatants were determined at each time point (Fig. 2a,b).
The DMSO content was 1%. […] The experiments were repeated three times.

[4] = system: zebrafish skeletal muscle; assay: Fast escape response (C-start), maximal angular velocity; format: in vivo, zebrafish (Danio rerio); conditions: 2 μM
Method: (§1) Since the myosin II inhibitors decrease the ATPase activity of SkS1 in vitro, we tested their inhibition on zebrafish skeletal muscle in vivo. We investigated the fast escape response (C-start) reflex of 6 dpf fish evoked by standardized tapping stimuli (Video 1). […] The velocity of the rotating heads of the embryos were quantified (maximal angular velocity) in the absence and in the presence of increasing concentrations of the myosin II inhibitors (2, 5, 10, 20 μM), monitored for 4 hours. The half maximal effective concentration (EC50) values for the inhibition of the maximal angular velocity by the myosin II inhibitors are below 2 μM since even at 2 μM the inhibitory effects were >90% for all inhibitors. We experienced that the inhibitory effect of para-aminoblebbistatin is exerted much slower than that of blebbistatin and para-nitroblebbistatin, probably due to its slower uptake (half inhibitions at […], respectively) (Supplementary Figure 1). To further evaluate the specificity of blebbistatin and its derivatives on different myosin II isoforms, we examined the effect of the inhibitors on 6 dpf (days post fertilization) zebrafish heart muscle in vivo. We monitored heart beating and the amplitude of heart muscle contraction before and after the addition of 20 μM of the inhibitors to the specimens.
(§2) The tapping force was standardized. […] For the cytotoxicity assay, zebrafish embryos were incubated in E3 medium containing 0 μM (Control), 5 μM, 10 μM or 20 μM of para-aminoblebbistatin, para-nitroblebbistatin or blebbistatin in 0.1 vol/vol% final concentration of DMSO and monitored for 70 hours.

HeLa cells = assay: Wound healing assay (cell motility); format: cell-based, human; conditions: 20 μM, 24 hours, uncoated glass; 100% = total diameter of the wound; control 30.6 ± 5.4%
Method: For wound healing assays, 200 μl of HeLa cells were plated on 35 mm borosilicate glass imaging dishes at 300,000 cells/ml concentrations and incubated for 24 hours. 1 hour prior to wounding, cells were incubated in 20 μM of the different myosin II inhibitors. After one hour, scratches were made with pipette tips in monolayer cultures and the motility of cells for occupying the wound was monitored for 24 hours with a Foculus Digital Camera (IEEE1394). Analysis of cell motility was carried out by ImageJ, by measuring the distance between two lines fitted on the two sides of the approaching cell edges created by the pipette tips.

M2 cells = assay: Inhibition of blebbing (blebbing index) of M2 cells; format: cell-based, human
Method: Next, we compared the non-muscle myosin II inhibition by para-aminoblebbistatin, para-nitroblebbistatin and blebbistatin in human melanoma (M2) and HeLa cells. As blebbistatin acquired its name from its ability to block blebbing of M2 cells, we compared blebbing indices[17] of M2 cells in time, incubated in the three different myosin II inhibitors at different concentrations (Fig. 3c–e). Even 5 μM concentrations of the myosin II inhibitors achieved significant decrease in the blebbing indices of the cells within an hour, whereas higher concentrations of the inhibitors completely stopped blebbing of the cells within >40–60 minutes (10 μM) or >20 minutes (25 and 50 μM).
For blebbing index determination, M2 cells were incubated for 30 minutes in PBS in every case prior to the addition of inhibitors, in order to initiate extensive blebbing. Blebbing of the cells was monitored before as well as after inhibitor addition to the cells. DMSO concentration was 0.1 vol/vol% in all experiments. Blebbing index was calculated by summing the initiated blebs in a 5-minute interval (starting at the indicated time points) on a given standard area[17] (whole cells with similar size, diameter = 12 ± 1 μm) and normalizing it to the blebbing index prior to inhibitor treatment.

[5] = target: T2, Dictyostelium discoideum myosin II motor domain (DdMD) (Dictyostelium discoideum, UniProt P08799); assay: biochemical; conditions: for IC50: 20 °C
T2 construct: Dictyostelium discoideum myosin II motor domain (DdMD)
T2 sequence (P08799 86-759 limits assumed): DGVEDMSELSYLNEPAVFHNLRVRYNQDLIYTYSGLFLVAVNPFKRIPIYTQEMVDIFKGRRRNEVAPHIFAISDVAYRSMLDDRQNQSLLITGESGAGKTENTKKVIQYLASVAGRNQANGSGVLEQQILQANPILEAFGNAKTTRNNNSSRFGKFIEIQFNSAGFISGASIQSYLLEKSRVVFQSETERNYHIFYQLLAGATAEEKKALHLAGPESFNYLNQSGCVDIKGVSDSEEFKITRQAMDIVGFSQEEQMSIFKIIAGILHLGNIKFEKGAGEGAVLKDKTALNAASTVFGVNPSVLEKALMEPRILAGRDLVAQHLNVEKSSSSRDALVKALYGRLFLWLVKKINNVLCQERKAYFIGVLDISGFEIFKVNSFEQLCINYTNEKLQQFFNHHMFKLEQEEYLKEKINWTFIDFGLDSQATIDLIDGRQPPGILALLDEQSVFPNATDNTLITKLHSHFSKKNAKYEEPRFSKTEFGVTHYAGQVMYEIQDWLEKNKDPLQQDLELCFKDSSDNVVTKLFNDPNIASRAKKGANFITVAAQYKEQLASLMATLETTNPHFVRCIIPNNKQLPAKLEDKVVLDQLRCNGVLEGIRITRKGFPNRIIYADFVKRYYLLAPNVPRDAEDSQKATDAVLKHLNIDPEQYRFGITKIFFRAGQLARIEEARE
Method: Myosin and actin together with the indicated concentration of the inhibitor were pre-incubated for 5 minutes at room temperature and the measurements were initiated with 1 mM ATP. Data were corrected for background ATPase activity of actin. G-actin was prepared accordingly from rabbit skeletal muscle[24] and polymerized by 2 mM MgCl2 for 1 hour at room temperature. Measurements were performed in low salt buffer containing 5 mM HEPES, 2 mM MgCl2, 0.1 mM EGTA and 2 mM DTT at pH 7.2 or assay buffer containing 20 mM HEPES, 40 mM NaCl, 4 mM MgCl2 at pH 7.3 for basal ATPase activity measurements with DdMD.

[6] = target: T1, rabbit skeletal muscle myosin S1 (SkS1); assay: Steady state basal ATPase, SkS1; format: biochemical; conditions: 25 °C
[7] = system: HeLa Kyoto H2B-mCherry eGFP-α-tubulin cells; assay: Cell growth assay (cell number, cytokinesis)
Method: Cells incubated in different concentrations of the inhibitors were counted on each day for three days.

zebrafish heart muscle = assay: Heart beating and amplitude of heart muscle contraction; format: in vivo, zebrafish (Danio rerio); conditions: 20 μM, 6 dpf
Method: as §1, §2

Row | Structure (SMILES) | IC50 (myosin II) | IC50 [1] | Effect on pLLp migration [2] | Toxicity in live zebrafish embryo tests (zebrafish embryo) | Solubility ([3]; 0.1 vol/vol% DMSO in assay buffer) | Solubility ([3]; 1 vol/vol% DMSO in assay buffer) | Half inhibition time of maximal angular velocity [4] | Relative migration of HeLa cells (HeLa cells) | Time constant τ of inhibition of blebbing (M2 cells; 5 μM) | Time constant τ of inhibition of blebbing (M2 cells; 10 μM) | Time constant τ of inhibition of blebbing (M2 cells; 25 μM) | Maximal inhibition of actin activated ATPase of DdMD [5] | Maximal inhibition of basal ATPase of DdMD [5] | IC50 ([5]; 15 μM actin, read-out: IC50 actin activated ATPase activity of DdMD) | IC50 ([5]; read-out: IC50 basal ATPase of DdMD) | IC50 [6] | Fold weaker IC50 than blebbistatin's (cell proliferation) ([7]; day 3) | IC50 ([7]; read-out: IC50 of the inhibition of cell proliferation, cell number at day 3) | Time within which amplitude of contraction and blood circulation dropped drastically (zebrafish heart muscle)
1 | Cc1cc2c(cc1[N+](=O)[O-])N=C1N(c3ccccc3)CCC1(O)C2=O (stereo not shown) [nitroblebbistatin] | 27.5 µM |  |  |  |  |  |  |  |  |  |  |  |  |  |  |  |  |  | 
2 | Cc1ccc2c(c1)C(=O)[C@]1(O)CCN(c3ccc([N+](=O)[O-])cc3)C1=N2 [para-nitroblebbistatin] |  | 100 ± 4 nM | halted pLLp migration | negligible | 3.3 ± 0.1 µM (≈ 1.11 µg/mL) | 3.6 ± 0.2 µM (≈ 1.21 µg/mL) | 1.3 h | 53.2 ± 17.6% | 21.9 ± 4.6 min | 11.7 ± 0.5 min | 5.9 ± 0.2 min | ~ 100% | ~ 100% | 3.4 ± 0.3 µM | 5.3 ± 1.6 µM | 300 ± 40 nM | 2–3 times | 14.7 ± 4.2 µM | within the first hour

From publication PMC4886532, “A highly soluble, non-phototoxic, non-fluorescent blebbistatin derivative” (Scientific Reports, 2016)
